Experimental data taken from patent publication US20120082736A1, “Small-molecule TNF modulator to reduce the side effects of chemotherapy and radiotherapy” (GeneBlue Corporation, priority 2010, published 2012).
Entries after “also recorded” stand apart in the source; their conditions may differ.

Tests used:
[1] = tested on: human colon cancer cells (HCT-15); test: Effect of UTL-5g pretreatment on antitumor effect of cisplatin, HCT-15 tumors in SCID mice (Example 4); assay type: in vivo
Experimental: FIG. 7. Effect of UTL-5g pre-treatment on the antitumor effect of cisplatin Group 1, saline, daily ×5 (control); Group 2, cisplatin (2.5 mg/kg) in saline, daily ×5; Group 3, UTL-5g (60 mg/kg) followed by cisplatin (2.5 mg/kg) 30 min later, daily ×5. […] Gp: Group
In order to qualify UTL-5g as a chemoprotective agent, a therapeutic assessment was conducted to evaluate the effect of UTL-5g on the efficacy of cisplatin. Briefly, 25 SCID mice were randomly divided into 5 groups as below. • Gp 1: Saline daily ×5 (control) • Gp 2: Cisplatin 0.2 mg/mL (2.5 mg/kg), daily ×5 • Gp 3: UTL-5g (60 mg/kg) followed by cisplatin (2.5 mg/kg) 30 min later, daily ×5 • Gp 4: Cisplatin 0.4 mg/mL ([…]) in saline, day 1 only • Gp 5: UTL-5g (60 mg/kg) followed by cisplatin (5 mg/kg) 30 min later, day 1 only
Cisplatin was dissolved in saline. UTL-5g was prepared in DMSO/Cremophor/propylene glycol/saline as described in previous section. All injections were ip and the injection volume was 0.25 mL. Three days before treatment (Day −2), human colon cancer cells (HCT-15) were injected subcutaneously and bilaterally (1×10^6 cells per site per mouse) in each SCID mouse in all groups and tumor sizes were measured by a caliper every 2-3 days and the animals were sacrificed when tumor reached 1,200 mm^3.
The % T/C value is used here as the end-point. […]

TNF-α = test: Liver TNF-α levels after liver irradiation (ELISA); assay type: in vivo, mice
Experimental: Mice were treated individually with 0.3 mL each of UTL-5g preparations i.p. 1 hr prior to liver irradiation at 15 Gy. Liver TNF-α levels were analyzed by standard ELISA methodology.
(§1) Based on the preliminary studies, UTL-5g was selected for dose-dependent radioprotective studies. In this study, animals were treated with increasing doses of UTL-5g (from 0 to 60 mg/kg) one hr prior to liver irradiation (15 Gy). Two hr after irradiation, animals were sacrificed and serum AST/ALT enzyme activities and liver TNF-α levels were determined. […] For animals pre-treated with UTL-5g at 30 mg/kg, AST/ALT activity levels were lowered from 135/29 to 89/22 Unit/L, and those pre-treated with UTL-5g at 60 mg/kg, AST/ALT levels were reduced from 135/29 to 74/19 Unit/L, respectively.

[2] = tested on: C57BL/6 mice, liver irradiation; test: Liver irradiation: serum AST and ALT activities (Examples 5-7); assay type: in vivo
Experimental: FIG. 8. Effect of UTL compounds on AST and ALT with and without radiation C57BL/6 male mice were treated with UTL-5b, -5d, and -5g each in 0.3 mL vehicle containing DMSO/(Cremophor:propylene glycol 4:6 v/v)/saline, 5/5/90 v/v by i.p. injection (30 mg/kg) 1 hr prior to liver irradiation with 15 Gy. Serum was obtained at 2 hr after irradiation and assayed for AST and ALT activities. Data are means±standard deviation (S.D.) * indicates p<0.05, n=4.
Mice were treated with various doses of UTL-5g (3.75, 7.5, 15, 30, and 60 mg/kg, i.p.) 1 hr prior to liver radiation with 15 Gy. Serum was obtained at 2 hr after irradiation and assayed for AST (4a) and ALT activities (4b).
FIG. 11. Radiation dose escalation and radioprotection by UTL-5 g Mice were pre-treated with UTL-5g (60mg/kg, i.p.) at 1 hr prior to radiation dose escalation (0, 5, 15, and 25 Gy). Serum was harvested at 2 hr after injections and was subjected to AST/ALT measurements as described in Methods. Results were compared to control mice received control vehicle. Data are means±standard deviation (* p<0.05, 2-tailed paired t-Test comparing treated and untreated groups, n=4).
In a preliminary study, three UTL compounds (5b, 5d and 5g) were examined for their radioprotective effect in C57BL/6 mice. One hr prior to liver irradiation (15 Gy), animals were treated with the test compounds by i.p. injection (30 mg/kg). Two hr later, the animals were sacrificed and serum AST and ALT enzyme activities were determined.
During the preliminary study, it was found unexpectedly that the vehicle used, DMSO/(Cremophor:propylene glycol […])/saline 5:5:90 v/v was associated with some liver toxicity as indicated by the moderate increase of serum AST and ALT activities in animals treated with vehicle alone.
as §1
Next, we investigated the radioprotective effect of UTL-5g with increased irradiation doses. In this study, animals were pre-treated with UTL-5g at 60 mg/kg and randomly divided into 4 groups. One hr later, they were subjected to liver irradiation at 0, 5, 15 and 25 Gy. Consistent with the previous study, pretreatment with UTL-5 g at 60 mg/kg was radioprotective against 15 Gy as evidenced by the reduction of serum AST activity (103.0 vs. 159.8 Unit/L in UTL-5g and in control vehicle groups, respectively) and ALT activity (17.8 vs. 32.3 Unit/L in UTL-5g and in control vehicle groups respectively) (FIG. 11).

Cc1cc(C(=O)Nc2ccc(Cl)cc2Cl)no1 [UTL-5g]
effect on efficacy of cisplatin ([1]; UTL-5g 60 mg/kg 30 min before cisplatin 2.5 mg/kg, daily ×5 (Gp 3 vs Gp 2)): increased the efficacy of cisplatin; also recorded: did not have tumor-protective effect and actually increased the efficacy of cisplatin | enhancement of efficacy of cisplatin ([1]; UTL-5g 60 mg/kg 30 min before cisplatin 5 mg/kg, single dose (Gp 5 vs Gp 4)): not observed | liver TNF-α levels, reduction (TNF-α; UTL-5g 30 mg/kg i.p. 1 hr prior to liver irradiation 15 Gy): 20% | liver TNF-α levels, reduction (TNF-α; UTL-5g 60 mg/kg i.p. 1 hr prior to liver irradiation 15 Gy): 29% | serum AST and ALT levels induced by irradiation ([2]; 30 mg/kg i.p. 1 hr prior to liver irradiation 15 Gy, serum 2 hr after, C57BL/6 mice, preliminary study): the most effective in lowering both AST and ALT enzyme activities | serum AST/ALT activities, dose dependence ([2]; UTL-5g 0 to 60 mg/kg i.p. 1 hr before liver irradiation 15 Gy, serum 2 hr after): significantly reduced serum AST/ALT activities in a drug dose-dependent manner | serum ALT activity ([2]; UTL-5g 30 mg/kg 1 hr before 15 Gy, irradiated vehicle 29 (Example 6)): 22 Unit/L | serum AST activity ([2]; UTL-5g 30 mg/kg 1 hr before 15 Gy, irradiated vehicle 135 (Example 6)): 89 Unit/L | AST and ALT levels ([2]; UTL-5g 60 mg/kg 1 hr before 5 Gy): slightly but not significantly changed | serum ALT activity ([2]; UTL-5g 60 mg/kg 1 hr before 15 Gy, control vehicle 32.3 (Example 7)): 17.8 Unit/L | serum AST activity ([2]; UTL-5g 60 mg/kg 1 hr before 15 Gy, control vehicle 159.8 (Example 7)): 103.0 Unit/L | serum ALT activity ([2]; UTL-5g 60 mg/kg 1 hr before 15 Gy, irradiated vehicle 29 (Example 6)): 19 Unit/L | serum AST activity ([2]; UTL-5g 60 mg/kg 1 hr before 15 Gy, irradiated vehicle 135 (Example 6)): 74 Unit/L | radioprotection (AST/ALT) ([2]; UTL-5g 60 mg/kg 1 hr before 25 Gy): only moderate protection | AST and ALT enzyme activities without irradiation ([2]; UTL-5g 60 mg/kg alone, animals without irradiation): slightly increased
